In PubChem BioAssay (NCI):
Converted amounts (≈) assume the structure as drawn. “And” between values parts separate entries of the source, which are not always exact repeats. Equal values may be shown once.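 Dose response: 5 concentrations. Exposure: 48 h. Format: 96-well plates. Endpoint: linear interpolation; highest concentration if not reached. GI50 marks 50% less growth. The concentration for full growth arrest is given as TGI.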

Tests used:
Assay in all cases: inhibition of tumour cell growth, NCI panel, 48 h
IGROV1 ovarian = test system: IGROV1 ovarian
OVCAR-4 ovarian = test system: OVCAR-4 ovarian
SW-620 colon = test system: SW-620 colon
SNB-75 CNS = test system: SNB-75 CNS
A549 NSCLC = test system: A549 NSCLC
A498 renal = test system: A498 renal
SR leukemia = test system: SR leukemia
ACHN renal = test system: ACHN renal
NCI/ADR-RES ovarian = test system: NCI/ADR-RES ovarian
PC-3 prostate = test system: PC-3 prostate
RPMI-8226 leukemia = test system: RPMI-8226 leukemia
SF-268 CNS = test system: SF-268 CNS
786-0 renal = test system: 786-0 renal
EKVX NSCLC = test system: EKVX NSCLC
HCT-15 colon = test system: HCT-15 colon
NCI-H522 lung = test system: NCI-H522 lung
HOP-92 NSCLC = test system: HOP-92 NSCLC
KM12 colon = test system: KM12 colon
DU-145 prostate = test system: DU-145 prostate
UO-31 renal = test system: UO-31 renal
OVCAR-8 ovarian = test system: OVCAR-8 ovarian
T-47D breast = test system: T-47D breast
HS 578T breast = test system: HS 578T breast
U251 CNS = test system: U251 CNS
MDA-MB-231 breast = test system: MDA-MB-231 breast
TK-10 renal = test system: TK-10 renal
SK-OV-3 ovarian = test system: SK-OV-3 ovarian
MCF7 breast = test system: MCF7 breast
LOX IMVI melanoma = test system: LOX IMVI melanoma
NCI-H226 lung = test system: NCI-H226 lung
NCI-H23 lung = test system: NCI-H23 lung
SNB-19 CNS = test system: SNB-19 CNS
MALME-3M melanoma = test system: MALME-3M melanoma
CCRF-CEM leukemia = test system: CCRF-CEM leukemia
SN12C renal = test system: SN12C renal
HOP-62 NSCLC = test system: HOP-62 NSCLC
K-562 leukemia = test system: K-562 leukemia
MOLT-4 leukemia = test system: MOLT-4 leukemia
M14 melanoma = test system: M14 melanoma
SK-MEL-28 melanoma = test system: SK-MEL-28 melanoma
OVCAR-5 ovarian = test system: OVCAR-5 ovarian
SF-539 CNS = test system: SF-539 CNS
OVCAR-3 ovarian = test system: OVCAR-3 ovarian
RXF 393 renal = test system: RXF 393 renal
HCT-116 colon = test system: HCT-116 colon
HT29 colon = test system: HT29 colon
CAKI-1 renal = test system: CAKI-1 renal
HL-60(TB) leukemia = test system: HL-60(TB) leukemia
SK-MEL-2 melanoma = test system: SK-MEL-2 melanoma
COLO 205 colon = test system: COLO 205 colon
UACC-257 melanoma = test system: UACC-257 melanoma
HCC-2998 colon = test system: HCC-2998 colon
MDA-MB-435 = test system: MDA-MB-435
UACC-62 melanoma = test system: UACC-62 melanoma
SF-295 CNS = test system: SF-295 CNS
NCI-H460 lung = test system: NCI-H460 lung
SK-MEL-5 melanoma = test system: SK-MEL-5 melanoma
BT-549 breast = test system: BT-549 breast

## CS(=O)(=O)c1ccc(C(=O)Nc2ccc(Cl)c(-c3ccccn3)c2)c(Cl)c1
IGROV1 ovarian
  TGI: > 100000 nM
OVCAR-4 ovarian
  GI50: 29700 nM
  TGI: > 100000 nM
SW-620 colon
  TGI: > 100000 nM and 13200 nM
SNB-75 CNS
  GI50: 14400 nM and 3140 nM
  TGI: > 100000 nM and 79000 nM
A549 NSCLC
  TGI: > 100000 nM and 21200 nM
A498 renal
  TGI: > 100000 nM and 46300 nM
SR leukemia
  TGI: > 100000 nM and 20900 nM
ACHN renal
  TGI: > 100000 nM and 23500 nM
NCI/ADR-RES ovarian
  TGI: > 100000 nM and 25700 nM
PC-3 prostate
  TGI: > 100000 nM and 33700 nM
RPMI-8226 leukemia
  TGI: > 100000 nM and 10600 nM
SF-268 CNS
  TGI: > 100000 nM and 66500 nM
786-0 renal
  GI50: 63200 nM
  TGI: > 100000 nM
EKVX NSCLC
  TGI: > 100000 nM and 14900 nM
HCT-15 colon
  TGI: > 100000 nM and 21200 nM
NCI-H522 lung
  TGI: > 94000 nM and 9430 nM
HOP-92 NSCLC
  TGI: > 100000 nM and 10700 nM
KM12 colon
  TGI: > 100000 nM and 10200 nM
DU-145 prostate
  TGI: > 100000 nM
UO-31 renal
  GI50: 12100 nM and 3660 nM
  TGI: > 42600 nM and 27000 nM
OVCAR-8 ovarian
  TGI: > 100000 nM and 25500 nM
T-47D breast
  TGI: > 100000 nM and 12100 nM
HS 578T breast
  TGI: > 100000 nM
U251 CNS
  TGI: > 100000 nM and 15800 nM
MDA-MB-231 breast
  TGI: > 96200 nM and 15700 nM
TK-10 renal
  TGI: > 100000 nM and 34700 nM
SK-OV-3 ovarian
  GI50: > 100000 nM
  TGI: > 100000 nM
MCF7 breast
  TGI: > 100000 nM and 14900 nM
LOX IMVI melanoma
  TGI: > 100000 nM and 10100 nM
NCI-H226 lung
  TGI: > 100000 nM and 26500 nM
NCI-H23 lung
  TGI: > 100000 nM and 17200 nM
SNB-19 CNS
  TGI: > 100000 nM
MALME-3M melanoma
  GI50: 41900 nM and 5240 nM
  TGI: > 100000 nM and 31600 nM
CCRF-CEM leukemia
  TGI: > 100000 nM
SN12C renal
  TGI: > 100000 nM and 51300 nM
HOP-62 NSCLC
  TGI: > 100000 nM and 19300 nM
K-562 leukemia
  TGI: > 100000 nM and 45700 nM
MOLT-4 leukemia
  TGI: > 100000 nM and 14700 nM
M14 melanoma
  TGI: > 100000 nM and 11100 nM
SK-MEL-28 melanoma
  TGI: > 100000 nM and 16300 nM
OVCAR-5 ovarian
  TGI: > 100000 nM and 94600 nM
SF-539 CNS
  TGI: > 100000 nM and 13700 nM

## CCN=C1C=CC(=C(c2ccc(N)cc2)c2ccc(N(CC)CC)c(C)c2)C=C1
IGROV1 ovarian
  GI50: 537 nM
  TGI: 4010 nM
OVCAR-3 ovarian
  GI50: 368 nM
  TGI: 1260 nM
RXF 393 renal
  GI50: 400 nM
  TGI: 1860 nM
OVCAR-4 ovarian
  GI50: 298 nM
  TGI: 1660 nM
SW-620 colon
  GI50: 345 nM
  TGI: 1620 nM
SNB-75 CNS
  GI50: 204 nM
  TGI: 650 nM
HCT-116 colon
  GI50: 239 nM
  TGI: 1110 nM
A549 NSCLC
  GI50: 337 nM
  TGI: 12900 nM
A498 renal
  GI50: 240 nM
  TGI: 931 nM
SR leukemia
  GI50: 313 nM
  TGI: 1240 nM
HT29 colon
  GI50: 271 nM
  TGI: 1200 nM
CAKI-1 renal
  GI50: 1920 nM
  TGI: 8150 nM
ACHN renal
  GI50: 422 nM
  TGI: 2660 nM
NCI/ADR-RES ovarian
  GI50: 2740 nM
  TGI: > 100000 nM
PC-3 prostate
  GI50: 205 nM
  TGI: 4330 nM
RPMI-8226 leukemia
  GI50: 149 nM
  TGI: 882 nM
SF-268 CNS
  GI50: 407 nM
  TGI: 2090 nM
786-0 renal
  GI50: 344 nM
  TGI: 1840 nM
HL-60(TB) leukemia
  GI50: 304 nM
  TGI: 841 nM
SK-MEL-2 melanoma
  GI50: 303 nM
  TGI: 943 nM
EKVX NSCLC
  GI50: 266 nM
  TGI: 11100 nM
HCT-15 colon
  GI50: 917 nM
  TGI: 4770 nM
NCI-H522 lung
  GI50: 310 nM
  TGI: 1620 nM
HOP-92 NSCLC
  GI50: 182 nM
  TGI: 543 nM
KM12 colon
  GI50: 296 nM
  TGI: 1090 nM
COLO 205 colon
  GI50: 185 nM
  TGI: 400 nM
UACC-257 melanoma
  GI50: 324 nM
  TGI: 1690 nM
HCC-2998 colon
  GI50: 480 nM
  TGI: 1650 nM
DU-145 prostate
  GI50: 430 nM
  TGI: 2280 nM
UO-31 renal
  GI50: 2030 nM
  TGI: 10300 nM
MDA-MB-435
  GI50: 286 nM
  TGI: 884 nM
T-47D breast
  GI50: 222 nM
  TGI: 1340 nM
HS 578T breast
  GI50: 278 nM
  TGI: 5100 nM
U251 CNS
  GI50: 124 nM
  TGI: 1590 nM
MDA-MB-231 breast
  GI50: 219 nM
  TGI: 654 nM
TK-10 renal
  GI50: 396 nM
  TGI: 10700 nM
SK-OV-3 ovarian
  GI50: 255 nM
  TGI: 703 nM
NCI-H23 lung
  GI50: 318 nM
  TGI: 1300 nM
SNB-19 CNS
  GI50: 225 nM
  TGI: 1620 nM
MALME-3M melanoma
  GI50: 329 nM
  TGI: 1230 nM
UACC-62 melanoma
  GI50: 248 nM
  TGI: 866 nM
CCRF-CEM leukemia
  GI50: 306 nM
  TGI: 5350 nM
SN12C renal
  GI50: 201 nM
  TGI: 1150 nM
HOP-62 NSCLC
  GI50: 316 nM
  TGI: 1730 nM
SF-295 CNS
  GI50: 223 nM
  TGI: 745 nM
NCI-H460 lung
  GI50: 287 nM
  TGI: 1180 nM
K-562 leukemia
  GI50: 259 nM
  TGI: 1720 nM
MOLT-4 leukemia
  GI50: 394 nM
  TGI: 5120 nM
M14 melanoma
  GI50: 349 nM
  TGI: 1770 nM
SK-MEL-28 melanoma
  GI50: 394 nM
  TGI: 1960 nM
OVCAR-5 ovarian
  GI50: 317 nM
  TGI: 2070 nM
SF-539 CNS
  GI50: 340 nM
  TGI: 1360 nM
SK-MEL-5 melanoma
  GI50: 208 nM
  TGI: 440 nM

## CC(=O)OC1C=CC(OC(C)=O)C2C1[C@H]1C3C=CC=CC3[C@@H]2S1=O (stereo partly drawn)
A498 renal
  GI50: 53.7 µg/mL
HCC-2998 colon
  GI50: 94.2 µg/mL
BT-549 breast
  GI50: 59.8 µg/mL (≈ 172 µM)
MDA-MB-435
  GI50: 40.2 µg/mL
